Assay [1] concerns the target T1, MMP-2 (Homo sapiens, UniProt P08253).
T1 construct: purchased Enzo Life Sciences (MMP-2 drug discovery kit)
In words: MMP-2 inhibition assay (Enzo kit, OmniMMP RED fluorogenic substrate). The format is biochemical. The procedure:
The MMP-2 inhibition assay was performed using the Enzo Life Sciences MMP-2 drug discovery kit. and the quenched fluorogenic substrate OmniMMP RED. Reference substrate was diluted to a final concentration of 5 μM, while the MMP-2 enzyme was diluted to 58 mU/µL, and the N-Isobutyl-N-(4-methoxyphenylsulfonyl)glycyl hydroxamic acid (NNGH) inhibitor was diluted to a concentration of 1/200 in assay buffer. […] The assay was performed using a black 96-well microplate. Fluorescence was measured at excitation/emission wavelengths of 545/576 nm, with a cutoff at 570 nm using Gen5 microplate reader (BioTeK, Shoreline, WA). Baseline fluorescence was recorded before adding NNGH inhibitor which was used as a positive control for MMP-2 inhibition. Reaction mixtures in the plate were incubated at 37 °C for 10 min, and fluorescence was measured at 10 min intervals for the first 30 min, then at 30 min intervals until 2 h had elapsed. […] Statistical analysis was performed using ANOVA with GraphPad Prism software, version 10.0.3.

For assay [2], the target named is T2, MMP-2 (Homo sapiens, UniProt P08253).
T2 construct: ProSpec Bio; Antibodies-Online; Elabscience; Abcam ENZ-769; ABIN7400042; PKSH033450
T2 sequence (P08253 110-660): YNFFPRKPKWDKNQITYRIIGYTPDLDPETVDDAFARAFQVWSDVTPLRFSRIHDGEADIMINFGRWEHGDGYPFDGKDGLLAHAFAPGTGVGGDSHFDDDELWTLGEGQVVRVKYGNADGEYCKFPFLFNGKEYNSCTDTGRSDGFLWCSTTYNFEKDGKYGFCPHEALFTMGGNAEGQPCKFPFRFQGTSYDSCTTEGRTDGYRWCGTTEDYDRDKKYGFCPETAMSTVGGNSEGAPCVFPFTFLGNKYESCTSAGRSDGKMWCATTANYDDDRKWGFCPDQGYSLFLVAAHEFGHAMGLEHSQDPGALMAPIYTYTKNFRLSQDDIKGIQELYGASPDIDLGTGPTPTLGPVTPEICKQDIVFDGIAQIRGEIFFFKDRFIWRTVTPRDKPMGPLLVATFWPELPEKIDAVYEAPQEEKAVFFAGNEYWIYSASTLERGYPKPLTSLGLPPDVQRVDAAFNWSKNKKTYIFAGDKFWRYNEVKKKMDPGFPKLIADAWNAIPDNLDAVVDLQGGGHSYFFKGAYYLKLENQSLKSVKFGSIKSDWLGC
Description: Differential scanning fluorimetry (DSF). Type of assay: binding. Particulars: for Dtm (ΔTm), average: average of replicates. Also noted: Dtm (ΔTm): unit not given here. As for the experimental part: The melting temperatures (Tm) of recombinant MMP-2 and its complexes with peptides were ascertained using BioRad CFX384 Touch real-time PCR (Hercules, CA, USA). The experiments were performed as previously described. The unfolding of the protein was detected using the fluorescent SYPRO-orange dye (Invitrogen, Carlsbad, CA, USA). MMP-2 and prospective ligand peptides were dissolved in 7.1 pH phosphate buffered saline (154 mM NaCl, 5.6 mM Na2PO4, 1.1 mM KH2PO4), and the reaction mixture was made to a final concentration of 1 µM of protein, either 30 µM ([…]) of peptide, and 1000x dilution of the SYPRO-Orange dye stock from the manufacturer. Excitation and emission filters of the dye were set at 450 − 490 nm and 560 − 580 nm, respectively. The temperature for the reaction was held at 25 °C for 5 min, and then a gradient of 25 °C to 95 °C was applied at a rate of 0.3 °C/min, and the fluorescence was recorded. To determine Tm of the protein, the first derivatives of melting curves were plotted using GraphPad Prism software, version 10.0.3.
(Differential scanning fluorimetry follows unfolding on heating by fluorescence.)

In the next assay the target is T3, Neuropilin-1 (NRP-1) (Homo sapiens, UniProt O14786).
T3 construct: containing amino acid residues Phe22-Lys644, with a poly-histidine tag at the C-terminus; purchased ACROBiosystems NR1-H5228
T3 sequence (O14786 22-644 isoform O14786-2): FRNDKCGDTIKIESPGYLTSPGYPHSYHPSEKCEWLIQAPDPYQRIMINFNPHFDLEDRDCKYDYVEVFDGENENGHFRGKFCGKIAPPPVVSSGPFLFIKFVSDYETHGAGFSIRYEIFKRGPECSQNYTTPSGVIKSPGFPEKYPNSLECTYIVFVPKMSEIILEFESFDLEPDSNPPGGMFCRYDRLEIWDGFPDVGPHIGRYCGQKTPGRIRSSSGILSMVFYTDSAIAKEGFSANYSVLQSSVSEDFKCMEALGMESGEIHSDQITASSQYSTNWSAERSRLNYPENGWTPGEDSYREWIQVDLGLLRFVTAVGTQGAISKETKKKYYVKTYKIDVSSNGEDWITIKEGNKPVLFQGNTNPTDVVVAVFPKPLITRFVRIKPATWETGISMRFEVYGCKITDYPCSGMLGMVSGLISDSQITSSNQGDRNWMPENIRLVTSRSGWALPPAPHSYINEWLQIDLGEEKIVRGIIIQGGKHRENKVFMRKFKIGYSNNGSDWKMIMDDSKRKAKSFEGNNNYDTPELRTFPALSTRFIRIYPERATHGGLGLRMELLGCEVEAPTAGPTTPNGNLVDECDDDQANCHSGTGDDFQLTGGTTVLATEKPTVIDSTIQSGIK
Description: Surface plasmon resonance (SPR), immobilized NRP-1. Type of assay: binding. Particulars: NTA chip, steady-state affinity model, pH 7.4, n = 3, 4 replicates, read-out: dissociation constant (KD) for NRP-1. As for the experimental part:
Surface plasmon resonance (SPR) reagents, plates, and the NTA chip were purchased from GE Healthcare Life Sciences, now Cytiva (Marlborough, MA, USA). Measurements were performed using the Biacore 8000 SPR System (Marlborough, MA. USA). The running buffer used for protein immobilization and peptide binding consisted of 20 mM Tris, 150 mM NaCl, […] and 0.0005% Tween-20, adjusted to pH 7.4. MMP-2 and NRP-1 were immobilized onto the NTA chip at 15 nM and 25 nM concentration, respectively. Peptides were injected over the immobilized proteins using two-fold serial dilutions from 500 µM to 3.90 µM. Three experiments with four replicates of each were performed. The SPR response curves generated from the Biacore Insight Evaluation Software were fitted to a steady-state affinity model to obtain an equilibrium dissociation constant (KD) for each peptide — protein interaction.
A general note: Surface plasmon resonance follows binding to a sensor surface in real time, without labels.

[3] abbreviates: peptide 30, P75/P76 experiment 1, replicate 1.
Where [4] appears, read: peptide 30, P75/P76 experiment 1, replicate 2.
Setting [5] is: peptide 30, P75/P76 experiment 1, replicate 3.
The mark [6] stands for this setting: peptide 30, P75/P76 experiment 2, replicate 1.
Setting [7] is: peptide 30, P75/P76 experiment 2, replicate 2.
[8] abbreviates: peptide 30, P75/P76 experiment 2, replicate 3.
The mark [9] stands for this setting: peptide 30, P75/P76 experiment 3, replicate 1.
Setting [10] is: peptide 30, P75/P76 experiment 3, replicate 2.
Setting [11] is: peptide 30, P75/P76 experiment 3, replicate 3.
Setting [12] is: peptide 50, P75/P76 experiment 1, replicate 2.
Where [13] appears, read: peptide 50, P75/P76 experiment 1, replicate 3.
[14] abbreviates: peptide 50, P75/P76 experiment 2, replicate 1.
[15] abbreviates: peptide 50, P75/P76 experiment 2, replicate 2.
[16] abbreviates: peptide 50, P75/P76 experiment 2, replicate 3.
[17] abbreviates: peptide 50, P75/P76 experiment 3, replicate 1.
The mark [18] stands for this setting: peptide 50, P75/P76 experiment 3, replicate 2.
The mark [19] stands for this setting: peptide 50, P75/P76 experiment 3, replicate 3.

Four compounds from article PMC13065040 (PLOS One, 2026) can be followed below.

For orientation: Kd means a measure of binding affinity in units of concentration.

Where “and” joins values, the source holds several entries; their conditions need not be identical. Identical values can stand only once. Where a SMILES comes first, the peptide text is derived from it. Bridges are numbered along the chain shown (N, C = ends).

Consider “Ac-[Cys^26,Ser^28,33,Cyc(26,35)]Ctx(24–36)-NH2 [P76]”, for which, at MMP-2 [1] (peptides at 1 µM, 50 µM and 100 µM, one-way ANOVA vs control), the “inhibition of MMP-2 enzymatic activity (Fig 10B)” value is listed as “not statistically significant”. In addition, the “ΔTm ± SD, change in melting temperature of MMP-2” value on MMP-2 [2] (1 µM MMP-2, 30 µM (Ctx) or 50 µM (P75 and P76) peptide, PBS pH 7.1, SYPRO-Orange, average and SD of n ≥ 3, SD) amounted to 0.63 ± 0.36 °C. Besides, the “Dtm (ΔTm), average” value at MMP-2 [2] (peptide 30 (µM per method)) is reported as 0.6556; on MMP-2 [2] (peptide 50 (µM per method)), 0.6222. In addition, the “Dtm (ΔTm)” value is given as -0.7333 on MMP-2 [2] (setting [3]); -0.4333 on MMP-2 [2] (setting [4]); 0.1667 at MMP-2 [2] (setting [5]); 1.8 on MMP-2 [2] (setting [6]); 1.5 on MMP-2 [2] (setting [7]); 1.8 at MMP-2 [2] (setting [8]). Besides, the “Dtm (ΔTm)” value at MMP-2 [2] (setting [9]) is given as 0.5; at MMP-2 [2] (setting [10]), 0.5; on MMP-2 [2] (setting [11]), 0.8; at MMP-2 [2] (setting [12]) it was 0.6; at MMP-2 [2] (setting [13]) it was 0.6; on MMP-2 [2] (setting [14]), 0.5. Also, the “Dtm (ΔTm)” value at MMP-2 [2] (setting [15]) turned out to be 1.2; on MMP-2 [2] (setting [16]), 1.2; on MMP-2 [2] (setting [17]), 0.2; at MMP-2 [2] (setting [18]), 0.5; at MMP-2 [2] (setting [19]), 0.2. Besides, the Tm of MMP-2 with peptide on MMP-2 [2] (setting [3]) worked out at 45.7 °C; at MMP-2 [2] (setting [4]), 46 °C; on MMP-2 [2] (setting [5]), 46.6 °C; on MMP-2 [2] (setting [6]), 48.7 °C; on MMP-2 [2] (setting [7]), 48.4 °C; at MMP-2 [2] (setting [8]), 48.7 °C. For the same compound, the Tm of MMP-2 with peptide stood at 47.8 °C at MMP-2 [2] (setting [9]); 47.8 °C on MMP-2 [2] (setting [10]); 48.1 °C at MMP-2 [2] (setting [11]); 47.8 °C at MMP-2 [2] (peptide 50, P75/P76 experiment 1, replicate 1); 47.8 °C at MMP-2 [2] (setting [12]); 47.8 °C at MMP-2 [2] (setting [13]). Also, the Tm of MMP-2 with peptide on MMP-2 [2] (setting [14]) was determined as 47.4 °C; at MMP-2 [2] (setting [15]), 48.1 °C; at MMP-2 [2] (setting [16]) it was 48.1 °C; at MMP-2 [2] (setting [17]), 47.5 °C; at MMP-2 [2] (setting [18]), 47.8 °C; on MMP-2 [2] (setting [19]), 47.5 °C.
Take `CC(=O)N[C@@H](CCCCN)C(=O)N[C@H]1CSSC[C@@H](C(=O)N[C@@H](CC(C)C)C(N)=O)NC(=O)[C@H](CCC(N)=O)NC(=O)[C@@H]2CCCN2C(=O)CNC(=O)[C@H](Cc2ccc(O)cc2)NC1=O` [P78, Ac-[Cyc(28,33)]Ctx(27–34)-NH2] (Ac-KCYGPQCL-NH2; disulfide 2-7): the Kd at Neuropilin-1 (NRP-1) came out at 267 ± 103 µM.
For the compound `COc1ccc(S(=O)(=O)N(CC(=O)NO)CC(C)C)cc1` [NNGH, N-Isobutyl-N-(4-methoxyphenylsulfonyl)glycyl hydroxamic acid], at MMP-2 [1], the “MMP-2 enzymatic activity, percent of control” value was 11.2096 and 16.193.
As to `CC(=O)NCC(=O)N[C@@H](CCCNC(=N)N)C(=O)NCC(=O)N[C@@H](CCCCN)C(=O)N[C@H]1CSSC[C@@H](C(=O)N[C@@H](CC(C)C)C(=O)N[C@@H](CO)C(=O)N[C@@H](CCCNC(=N)N)C(N)=O)NC(=O)[C@H](CCC(N)=O)NC(=O)[C@@H]2CCCN2C(=O)CNC(=O)[C@H](Cc2ccc(O)cc2)NC1=O` [P75, Ac-[Ser^35,Cyc(28,33)]Ctx(24–36)-NH2] (Ac-GRGKCYGPQCLSR-NH2; disulfide 5-10), at Neuropilin-1 (NRP-1), the Kd came out at 330 ± 146 µM. Besides, the “Dtm (ΔTm)” value on MMP-2 [2] (setting [3]) came to 1.067; on MMP-2 [2] (setting [4]) it was 1.067; at MMP-2 [2] (setting [5]), 1.367; on MMP-2 [2] (setting [6]) it was 0.6; at MMP-2 [2] (setting [7]) it was 0.6; at MMP-2 [2] (setting [8]), 0.6. Further, the “Dtm (ΔTm)” value on MMP-2 [2] (setting [9]) is 0.2; on MMP-2 [2] (setting [10]), -0.4; on MMP-2 [2] (setting [11]) it was -0.1. The “Dtm (ΔTm), average” value at MMP-2 [2] (peptide 50 (µM per method)) turned out to be 0.7556.
